Assay results: patent US20060128645A1, “Inhibition of proliferation and infiltration of brain tumor cells caused by expression of ampa-type glutamate receptor subunit” (priority 2002, published 2006)
One block for each molecule: values may come before it.

Tests used:
[1] = test system: Ca^2+-permeable AMPARs in CGNH-89 cells; experiment: AMPA-induced [Ca2+]i changes (fura-2 AM) in CGNH-89 cells after adenoviral gene transfer; type: cell-based, human; conditions: 200 μM AMPA + 100 μM CTZ
Procedure: In FIGS. 3p˜x, the present inventors confirmed changes in Ca^2+ permeability induced by adenoviral-mediated introduction of GluR2 (R) or GluR2 (Q) in CGNH-89 cells. […] The same treatment had no effect on [Ca^2+]i in cells expressing GluR2 (FIGS. 3s, t and u) in 4 culture dishes, whereas it caused a marked increase in [Ca^2+]i from 77±21 to 1185±240 nM (n=40) in cells expressing GluR2 (Q) in 2 culture dishes (FIGS. 3v, w and x).
(2) AxCANCre and AxCAGFP: recombinant adenoviruses for expression of Cre recombinase and EGFP (Clontech), respectively. Cells were infected at a multiplicity of infection (MOI) of 5 with each of the recombinant adenoviruses 2˜5 days before experiments.
(§1) Cells were loaded with fura 2-AM (Dojin) at room temperature for 40 min. Fluorescence images were obtained at an excitation wavelength of 340 and 380 nm using the Argus/HiSCA system (Hamamatsu Photonics). The 340/380 nm fluorescence ratio was converted to [Ca^2+]i as described previously (Cell, 88, 49-55, 1997).

CGNH-89 cells [2] = experiment: ATP-induced [Ca2+]i increase in CGNH-89 cells; type: cell-based, human; conditions: 25 μM ATP; control cells, n=50
Procedure: The present inventors examined whether CGNH-89 cells expressing GluR2 (R) could increase [Ca^2+]i to a similar extent as control cells in response to ATP, which is known to mediate Ca^2+ signaling in glial cells (J. Neurosci., 18, 8794-8804, 1998).
as §1

[3] = biological target: T1, Ca^2+-permeable AMPARs in glioblastoma cells in primary culture (Homo sapiens, UniProt P42261); experiment: AMPA-induced [Ca2+]i changes (fura-2 AM) in primary cultured glioblastoma cells; type: cell-based
T1 construct: To examine functional expression of Ca^2+-permeable AMPARs in glioblastoma cells in primary culture; endogenous in cells; host or cells: primary (explant) cultures of glioblastoma multiforme surgical samples
T1 sequence (P42261 19-906): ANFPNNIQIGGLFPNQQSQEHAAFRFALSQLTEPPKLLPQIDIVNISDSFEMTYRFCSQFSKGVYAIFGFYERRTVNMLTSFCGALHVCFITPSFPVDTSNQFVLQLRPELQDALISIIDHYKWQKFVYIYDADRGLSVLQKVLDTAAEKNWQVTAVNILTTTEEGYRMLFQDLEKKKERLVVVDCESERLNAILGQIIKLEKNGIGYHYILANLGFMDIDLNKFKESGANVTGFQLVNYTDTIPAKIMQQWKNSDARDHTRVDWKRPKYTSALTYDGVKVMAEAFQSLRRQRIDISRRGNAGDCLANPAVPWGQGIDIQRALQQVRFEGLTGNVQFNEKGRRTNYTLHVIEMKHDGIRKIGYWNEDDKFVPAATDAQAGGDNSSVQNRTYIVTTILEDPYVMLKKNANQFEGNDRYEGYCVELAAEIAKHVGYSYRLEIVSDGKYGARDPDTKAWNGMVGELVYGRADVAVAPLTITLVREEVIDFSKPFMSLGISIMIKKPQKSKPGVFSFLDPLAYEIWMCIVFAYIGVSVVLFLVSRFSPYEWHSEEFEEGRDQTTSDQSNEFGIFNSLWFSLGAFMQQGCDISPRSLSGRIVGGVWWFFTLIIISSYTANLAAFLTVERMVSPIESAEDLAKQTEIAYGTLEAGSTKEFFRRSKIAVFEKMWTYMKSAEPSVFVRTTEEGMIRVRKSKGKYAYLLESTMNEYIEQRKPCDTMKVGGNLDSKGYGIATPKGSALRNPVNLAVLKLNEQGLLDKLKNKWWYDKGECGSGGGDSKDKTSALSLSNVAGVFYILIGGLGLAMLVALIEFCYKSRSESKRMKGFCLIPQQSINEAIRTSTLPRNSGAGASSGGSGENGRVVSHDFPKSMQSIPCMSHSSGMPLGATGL
Procedure: as §1

CGNH-89 cells [4] = experiment: Cell morphology of CGNH-89 glioblastoma cells; type: cell-based, human
CGNH-89 cells [5] = experiment: Ki-67 staining index (proliferation activity) in CGNH-89 cells; type: cell-based, human; conditions: 10 μM YM872, 2 days, n=4
Procedure: There were no significant changes in these 2 indices between cells expressing GluR2 (Q) and overexpressing GluR1.
For TUNEL and cell proliferation assays, cells were plated at a density of 2×10^4/well in Lab-Tek 4-well glass slides filled with the standard culture medium. At 6 hr. after plating, the medium was replaced with glutamate-free medium and cells were infected with the adenoviruses. […] TUNEL assay was performed with an In Situ Cell Death Detection kit (MBL). Cell proliferation assay was performed with anti-Ki-67 monoclonal antibody (Dako) staining indices. Migration assay was performed in a transwell chamber (8 μm pore size) (Corning Corstar Corp.).

CGNH-89 cells [6] = experiment: TUNEL apoptotic index in CGNH-89 cells; type: cell-based, human; conditions: 10 μM YM872, 2 days, n=4
Source text: The present inventors next estimated the apoptotic index in CGNH-89 cells expressing GluR2 (R) using the terminal deoxynucleotide transferase (TdT)-mediated dUTP nick end labeling (TUNEL) method (Science, 267, 1445-1449, 1995), and compared this value with that in cells infected with only AxCALNLGluR2 (control). The apoptotic index was defined as the number of TUNEL-positive cells divided by the total number of propidium iodine (PI)-positive nuclei per microscopic field. To obtain the mean value in each culture dish, 10 to 15 randomly chosen fields were sampled.
For TUNEL and cell proliferation assays, cells were plated at a density of 2×10^4/well in Lab-Tek 4-well glass slides filled with the standard culture medium. At 6 hr. after plating, the medium was replaced with glutamate-free medium and cells were infected with the adenoviruses. At 48 hr. after plating, glutamate (100 μM) was added to the medium and cells were fixed at 5 days postinfection. TUNEL assay was performed with an In Situ Cell Death Detection kit (MBL). Cell proliferation assay was performed with anti-Ki-67 monoclonal antibody (Dako) staining indices. Migration assay was performed in a transwell chamber (8 μm pore size) (Corning Corstar Corp.).

[7] = test system: CGNH-NM, MRCH-92 and U87 MG; experiment: Other 3 cell lines expressing Ca2+-permeable AMPARs: morphology, apoptotic index, Ki-67 index, migration; type: cell-based, human
[8] = test system: tumor produced by grafting CGNH-89 cells into the subcutaneous tissue; experiment: Subcutaneous CGNH-89 tumor growth in nude mice; type: in vivo
Source text: To further estimate quantitatively whether manipulation of Ca^2+-permeable AMPARs alters tumor growth in vivo, the present inventors examined effects of GluR2 and GluR2 (Q) expression and/or application of the AMPAR antagonist YM872 on the growth of tumor produced by grafting CGNH-89 cells into the subcutaneous tissue of nude mice (FIG. 6)-(FIGS. 6a and b).
Proliferation of tumor cells expressing GluR2 (Q) was inhibited by application of YM872 (FIGS. 6g, h and i).
In addition, the effect of adenoviral-mediated expression of GluR2 (R) and GluR2 (Q) on tumor growth was evaluated quantitatively in subcutaneous tumors with or without application of YM872, an antagonist for AMPA-type glutamate receptors. Cell suspensions (1×10^7/100 μl) were injected subcutaneously in the flank of nude mice 5˜6 weeks old (body weight, 18˜20 g). Adenoviruses ([…], diluted in a total of 100 μl of PBS) were administered intratumorally once 5 days after tumor inoculation with a 27-gauge needle. AxCALNLGluR2 without AxCANCre was administered for control.
YM872, a kind gift from Yamanouchi Pharmaceutical Company, was dissolved in PBS. […] In this series of experiments, 100 mg/kg YM872 was used. PBS (100 μl) was administered intraperitoneally for control. Tumor volume was calculated according to the formula (length×width^2 )/2. At the end of each experiment, tumor tissues were subjected to histological analysis.

tumor cells = experiment: Tumor cells cultured in glutamate-free medium, glutamate add-back; type: cell-based, human; conditions: addition of 100 ˜M glutamate after 4˜5 days in glutamate-free medium with 10% dialyzed FCS
Procedure: The endogenous agonist for AMPARs is glutamate. The culture medium in this experiment was supplemented with fetal calf serum (FCS) and contained up to 100 μM glutamate. The presence of glutamate was essential for maintenance of fusiform morphology as well as proliferation of the tumor cells. When the cells were cultured in glutamate-free medium supplemented with 10% dialyzed FCS for 4˜5 days, they became polygonal in shape and the number of apoptotic cells increased. These changes were restored by addition of 100 ˜M glutamate. An obvious question is whether a sufficient concentration of glutamate to activate Ca^2+-permeable AMPARs is actually supplied to proliferating and migrating tumor cells in the brain. It has been shown that implanted glioma cells continue to secrete glutamate, resulting in a detectable elevation of extracellular glutamate, and that gliomas with high glutamate release have a distinct growth advantage (Nature Med., 7, 1010-1015, 2001).

[9] = other 3 cell lines (CGNH-NM, MRCH-92, U87 MG)
[10] = 22 days after tumor inoculation

SMILES: Cc1onc(O)c1CC(N)C(=O)O (stereo not drawn) [AMPA, α-amino-3-hydroxy-5-methyl-4-isoxazole propionic acid]
- control cells in which [Ca^2+]i increased ([1]; 10 culture dishes): 52±14%
- [Ca^2+]i during application of AMPA together with CTZ ([1]; control CGNH-89 cells, n=350): 275 ± 50 nM

SMILES: Nc1ncnc2c1ncn2[C@@H]1O[C@H](COP(=O)(O)OP(=O)(O)OP(=O)(O)O)[C@@H](O)[C@H]1O [ATP]
- [Ca^2+]i after application of ATP (CGNH-89 cells [2]): 1574 ± 161 nM

- effect on [Ca^2+]i ([3]; 100 mM K^+): did not increase
SMILES: [K+] [K^+]

SMILES: NS(=O)(=O)c1cccc2c1c([N+](=O)[O-])cc1nc(O)c(O)nc12 [NBQX, 2,3-dihydroxy-6-nitro-7-sulfamoyl-benzo(F)-quinoxaline]
- change in cell morphology (CGNH-89 cells [4]; 20 μM NBQX for 2 days): retraction of cytoplasmic processes, enlarged and flattened somata

SMILES: O.O=C(O)Cn1c(=O)c(=O)[nH]c2cc([N+](=O)[O-])c(-n3ccnc3)cc21 [YM872, [2,3-dioxo-7-(1H-imidazol-1-yl)-6-nitro-1,2,3,4-tetrahydroquinoxalin-1-yl]acetic acid monohydrate]
- Ki-67 staining index (CGNH-89 cells [5]): < 0.1%
- effect on AMPA-induced increase in [Ca^2+]i ([3]; 10 μM YM872): selectively abolished
- change in cell morphology (CGNH-89 cells [4]; 10 μM YM872 for 2 days): retraction of cytoplasmic processes, enlarged and flattened somata
- apoptotic index (CGNH-89 cells [6]): 18.0±2.5%
- Ki-67 staining index [7, 9]: decreased
- apoptotic index [7, 9]: increased
- cell migration ([7]; other 3 cell lines expressing Ca^2+-permeable AMPARs): inhibited the cell migration
- apoptotic cells in tumor tissues (histology) [8, 10]: a large number of apoptotic cells
- mitotic cells in tumor tissues (histology) [8, 10]: scarcely detected
- further effect on tumor expressing GulR2 ([8]; YM872 intraperitoneal, 100 mg/kg): no further inhibitory effects
- size of tumor ([8]; YM872 intraperitoneal, 100 mg/kg daily, vs PBS, n=12): significantly reduced
- growth of tumor expressing GluR2 (Q) ([8]; YM872 intraperitoneal, 100 mg/kg, n=12): inhibited
- proliferation of tumor cells expressing GluR2 (Q) (histology) ([8]; application of YM872): inhibited
- inhibition of tumor growth, dose dependence ([8]; daily intraperitoneal 10, 50 and 100 mg/kg for 2 weeks): Dose-dependent inhibition
- tumor proliferation in cells expressing GluR2 (histology) ([8]; treatment with YM872): no further inhibition

SMILES: N[C@@H](CCC(=O)O)C(=O)O [glutamate]
- polygonal shape and increased apoptotic cells caused by glutamate-free medium (tumor cells): restored
